Source: patent US20060069132A1, “Azolecarboxamide herbicides” (priority 2004, published 2006)

Experiments:
wheat = test: Test B postemergence herbicide test; format: in vivo, Triticum aestivum; set-up: key to Wheat plant response rating: 0 = no effect, 100 = complete control
In short: (§1)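 Read-out: visual comparison with controls, scored 0 to 100, where 100 means complete control and 0 no effect. Formulated chemicals were applied postemergence to plants 2–18 cm tall (1- to 4-leaf), or to flooded-paddy plants at the 2-leaf stage, then held 13 to 15 days under glass.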

rice = test: Test B flooded paddy test; format: in vivo, Oryza sativa; settings: 1000 g ai/ha, scale 0 to 100 (0 no effect, 100 complete control)
In short: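 Postemergence plants were sprayed with formulated test chemicals at 2 to 18 cm height (1- to 4-leaf stage); paddy species were grown to the 2-leaf stage. After 13 to 15 days in a greenhouse, injury was rated visually against untreated controls on a 0–100 scale (0 = no effect, 100 = complete control).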

[1] = test system: small flower umbrella sedge; test: Test B flooded paddy test; format: in vivo, Cyperus difformis; settings: 1000 g ai/ha, scale 0 to 100 (0 no effect, 100 complete control)
In short: (§2)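 Scale 0–100: zero equals no visible effect, 100 complete control, judged by eye relative to controls. Timing: 13 to 15 days in greenhouse post-treatment. Growth stage at spraying: two leaves (paddy) or one to four leaves, 2–18 cm (postemergence).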

blackgrass = test: Test B postemergence herbicide test; format: in vivo, Alopecurus myosuroides; settings: scale 0 (no effect) to 100 (complete control)
In short: as §2

corn = test: Test B pre-/postemergence herbicide test; format: in vivo, Zea mays; settings: for Plant response rating (0 to 100 scale), Corn: 0 is no effect, 100 is complete control, preemergence; for Corn plant response rating: scale 0 (no effect) to 100 (complete control)
In short: (§3)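 Response was scored visually 13 to 15 days after treatment against untreated greenhouse controls, 0 meaning no effect and 100 complete control. Formulations (solvent mixture plus surfactant) went onto soil after planting, onto foliage of 1- to 4-leaf plants, and onto 2-leaf plants in a flooded paddy set including rice and barnyardgrass.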

cocklebur = test: Test B pre-/postemergence herbicide test; format: in vivo, Xanthium strumarium; settings: for Plant response rating (0 to 100 scale), Cocklebur: 0 is no effect, 100 is complete control, preemergence; for Cocklebur plant response rating: scale 0 (no effect) to 100 (complete control)
In short: (§4)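 Formulation: non-phytotoxic solvent mix with surfactant. Timing: preemergence on seed and postemergence on 2–18 cm plants, applied concurrently. Readout after 13–15 d greenhouse: visual 0–100 control rating against controls.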

wild oat = test: Test B postemergence herbicide test; format: in vivo, Avena fatua; settings: scale 0 (no effect) to 100 (complete control)
In short: as §1

ducksalad = test: Test B flooded paddy test; format: in vivo, Heteranthera limosa; settings: 1000 g ai/ha, scale 0 to 100 (0 no effect, 100 complete control)
In short: as §2

barnyardgrass [2] = test: Test B pre-/postemergence herbicide test; format: in vivo, Echinochloa crus-galli; settings: for Plant response rating (0 to 100 scale), Barnyardgrass: 0 is no effect, 100 is complete control, preemergence; for Barnyardgrass plant response rating: scale 0 (no effect) to 100 (complete control)
In short: as §4

Surinam grass = test: Test B pre-/postemergence herbicide test; format: in vivo, Urochloa decumbens; settings: for Plant response rating (0 to 100 scale), Surinam Grass: 0 is no effect, 100 is complete control, preemergence; for Surinam Grass plant response rating: scale 0 (no effect) to 100 (complete control)
In short: as §3

large crabgrass = test: Test B pre-/postemergence herbicide test; format: in vivo, Digitaria sanguinalis; settings: for Plant response rating (0 to 100 scale), Crabgrass, Large: 0 is no effect, 100 is complete control, preemergence; for Crabgrass, Large plant response rating: scale 0 (no effect) to 100 (complete control)
In short: as §3

barnyardgrass [3] = test: Test B flooded paddy test; format: in vivo, Echinochloa crus-galli; settings: 1000 g ai/ha, scale 0 to 100 (0 no effect, 100 complete control)
In short: as §2

pigweed = test: Test B pre-/postemergence herbicide test; format: in vivo, Amaranthus retroflexus; settings: for Plant response rating (0 to 100 scale), Pigweed: 0 is no effect, 100 is complete control, preemergence; for Pigweed plant response rating: scale 0 (no effect) to 100 (complete control)
In short: as §3

lambsquarters = test: Test B pre-/postemergence herbicide test; format: in vivo, Chenopodium album; settings: for Plant response rating (0 to 100 scale), Lambsquarters: 0 is no effect, 100 is complete control, preemergence; for Lambsquarters plant response rating: scale 0 (no effect) to 100 (complete control)
In short: as §3

giant foxtail = test: Test B pre-/postemergence herbicide test; format: in vivo, Setaria faberi; settings: for Plant response rating (0 to 100 scale), Foxtail, Giant: 0 is no effect, 100 is complete control, preemergence; for Foxtail, Giant plant response rating: scale 0 (no effect) to 100 (complete control)
In short: as §3

morningglory = test: Test B pre-/postemergence herbicide test; format: in vivo, Ipomoea coccinea; settings: for Plant response rating (0 to 100 scale), Morningglory: 0 is no effect, 100 is complete control, preemergence; for Morningglory plant response rating: scale 0 (no effect) to 100 (complete control)
In short: as §4

[4] = 125 g ai/ha, visual rating, scale 0 (no effect) to 100 (complete control), postemergence
[5] = 500 g ai/ha, scale 0 to 100, 0 no effect, 100 complete control, preemergence
[6] = Postemergence, 500 g ai/ha, scale 0 (no effect) to 100 (complete control)
[7] = 125 g ai/ha, visual rating, postemergence

Compound	Wheat plant response rating (wheat; [4])	Wheat plant response rating (wheat; [5])	Wheat plant response rating (wheat; [6])	Rice plant response rating (rice)	Sedge, Umbrella plant response rating [1]	Blackgrass plant response rating (blackgrass; [7])	Blackgrass plant response rating (blackgrass; Postemergence, 500 g ai/ha)	Plant response rating (0 to 100 scale), Corn (corn; 125 g ai/ha)	Corn plant response rating (corn; [7])	Corn plant response rating (corn; Postemergence, 500 g ai/ha)	Plant response rating (0 to 100 scale), Cocklebur (cocklebur; 125 g ai/ha)	Cocklebur plant response rating (cocklebur; [7])	Cocklebur plant response rating (cocklebur; Postemergence, 500 g ai/ha)	Oat, Wild plant response rating (wild oat; [7])	Oat, Wild plant response rating (wild oat; Postemergence, 500 g ai/ha)	Ducksalad plant response rating (ducksalad)	Plant response rating (0 to 100 scale), Barnyardgrass (barnyardgrass [2]; 125 g ai/ha)	Barnyardgrass plant response rating (barnyardgrass [2]; [7])	Barnyardgrass plant response rating (barnyardgrass [2]; Postemergence, 500 g ai/ha)	Plant response rating (0 to 100 scale), Surinam Grass (Surinam grass; 125 g ai/ha)	other results
CCNC(=O)c1cccc(NC(=O)c2nn(C(C)(C)C)nc2C)c1 [Compound 392]	0	100	10	80	80	20	60	70	0	20	40	20	40	0	30	80	90	10	20	70	Surinam Grass plant response rating (Surinam grass; [7]): 10; Surinam Grass plant response rating (Surinam grass; Postemergence, 500 g ai/ha): 20; Plant response rating (0 to 100 scale), Crabgrass, Large (large crabgrass; 125 g ai/ha): 100; Crabgrass, Large plant response rating (large crabgrass; [7]): 10; Crabgrass, Large plant response rating (large crabgrass; Postemergence, 500 g ai/ha): 20; Barnyardgrass plant response rating (barnyardgrass [3]): 90; Plant response rating (0 to 100 scale), Pigweed (pigweed; 125 g ai/ha): 100; Pigweed plant response rating (pigweed; [7]): 60; Pigweed plant response rating (pigweed; Postemergence, 500 g ai/ha): 60; Plant response rating (0 to 100 scale), Lambsquarters (lambsquarters; 125 g ai/ha): 100; Lambsquarters plant response rating (lambsquarters; [7]): 70; Lambsquarters plant response rating (lambsquarters; Postemergence, 500 g ai/ha): 90; Plant response rating (0 to 100 scale), Foxtail, Giant (giant foxtail; 125 g ai/ha): 80; Foxtail, Giant plant response rating (giant foxtail; [7]): 20; Foxtail, Giant plant response rating (giant foxtail; Postemergence, 500 g ai/ha): 30; Plant response rating (0 to 100 scale), Morningglory (morningglory; 125 g ai/ha): 90; Morningglory plant response rating (morningglory; [7]): 20; Morningglory plant response rating (morningglory; Postemergence, 500 g ai/ha): 70
Cc1nn(C(C)(C)C)nc1C(=O)Nc1cccc(C(=O)N2CC=CC2)c1 [Compound 393]	0	100	10	80	90	20	40	40	0	20	30	30	60	10	30	90	90	10	20	80	Surinam Grass plant response rating (Surinam grass; [7]): 10; Surinam Grass plant response rating (Surinam grass; Postemergence, 500 g ai/ha): 10; Plant response rating (0 to 100 scale), Crabgrass, Large (large crabgrass; 125 g ai/ha): 90; Crabgrass, Large plant response rating (large crabgrass; [7]): 10; Crabgrass, Large plant response rating (large crabgrass; Postemergence, 500 g ai/ha): 20; Barnyardgrass plant response rating (barnyardgrass [3]): 90; Plant response rating (0 to 100 scale), Pigweed (pigweed; 125 g ai/ha): 100; Pigweed plant response rating (pigweed; [7]): 40; Pigweed plant response rating (pigweed; Postemergence, 500 g ai/ha): 50; Plant response rating (0 to 100 scale), Lambsquarters (lambsquarters; 125 g ai/ha): 90; Lambsquarters plant response rating (lambsquarters; [7]): 60; Lambsquarters plant response rating (lambsquarters; Postemergence, 500 g ai/ha): 80; Plant response rating (0 to 100 scale), Foxtail, Giant (giant foxtail; 125 g ai/ha): 80; Foxtail, Giant plant response rating (giant foxtail; [7]): 20; Foxtail, Giant plant response rating (giant foxtail; Postemergence, 500 g ai/ha): 30; Plant response rating (0 to 100 scale), Morningglory (morningglory; 125 g ai/ha): 20; Morningglory plant response rating (morningglory; [7]): 30; Morningglory plant response rating (morningglory; Postemergence, 500 g ai/ha): 50
CCc1nn(C(C)(C)C)nc1C(=O)Nc1cccc(C(=S)N(C)C)c1 [Compound 395]	20	100	30	80	90	20	40	90	30	60	60	70	80	40	40	90	90	20	70	90	Surinam Grass plant response rating (Surinam grass; [7]): 20; Surinam Grass plant response rating (Surinam grass; Postemergence, 500 g ai/ha): 60; Plant response rating (0 to 100 scale), Crabgrass, Large (large crabgrass; 125 g ai/ha): 100; Crabgrass, Large plant response rating (large crabgrass; [7]): 20; Crabgrass, Large plant response rating (large crabgrass; Postemergence, 500 g ai/ha): 50; Barnyardgrass plant response rating (barnyardgrass [3]): 90; Plant response rating (0 to 100 scale), Pigweed (pigweed; 125 g ai/ha): 100; Pigweed plant response rating (pigweed; [7]): 40; Pigweed plant response rating (pigweed; Postemergence, 500 g ai/ha): 60; Plant response rating (0 to 100 scale), Lambsquarters (lambsquarters; 125 g ai/ha): 100; Lambsquarters plant response rating (lambsquarters; [7]): 80; Lambsquarters plant response rating (lambsquarters; Postemergence, 500 g ai/ha): 100; Plant response rating (0 to 100 scale), Foxtail, Giant (giant foxtail; 125 g ai/ha): 100; Foxtail, Giant plant response rating (giant foxtail; [7]): 30; Foxtail, Giant plant response rating (giant foxtail; Postemergence, 500 g ai/ha): 50; Plant response rating (0 to 100 scale), Morningglory (morningglory; 125 g ai/ha): 80; Morningglory plant response rating (morningglory; [7]): 40; Morningglory plant response rating (morningglory; Postemergence, 500 g ai/ha): 80
